{"source": "patent US4698327A", "about": "“Novel glycopeptide derivatives” (priority 1986, dated 1987)", "key": {"[1]": {"system": "Streptococcus faecium ATCC 9790", "experiment": "MIC, standard agar-dilution assay", "format": "cell-based"}, "[2]": {"system": "Staphylococcus epidermidis 222", "experiment": "MIC, standard agar-dilution assay", "format": "cell-based"}, "[3]": {"system": "Streptococcus sp. group D 2041", "experiment": "MIC, standard agar-dilution assay", "format": "cell-based"}, "[4]": {"system": "Staphylococcus aureus X400", "experiment": "MIC, standard agar-dilution assay", "format": "cell-based"}, "[5]": {"system": "Klebsiella pneumoniae X26", "experiment": "MIC, standard agar-dilution assay", "format": "cell-based"}, "Escherichia coli N10": {"system": "Escherichia coli N10", "experiment": "MIC, standard agar-dilution assay", "format": "cell-based"}, "[6]": {"system": "Klebsiella pneumoniae KAE", "experiment": "MIC, standard agar-dilution assay", "format": "cell-based"}, "[7]": {"system": "Staphylococcus aureus S13E", "format": "cell-based", "settings": "agar dilution"}, "Escherichia coli EC14": {"system": "Escherichia coli EC14", "experiment": "MIC, standard agar-dilution assay", "format": "cell-based"}, "[8]": {"system": "Haemophilus influenzae C.L.", "experiment": "MIC, standard agar-dilution assay", "format": "cell-based"}, "[9]": {"system": "Streptococcus pyogenes C203", "experiment": "MIC, standard agar-dilution assay", "format": "cell-based"}, "Escherichia coli TEM": {"system": "Escherichia coli TEM", "experiment": "MIC, standard agar-dilution assay", "format": "cell-based"}, "[10]": {"system": "Klebsiella pneumoniae X68", "experiment": "MIC, standard agar-dilution assay", "format": "cell-based"}, "[11]": {"system": "Staphylococcus aureus V41", "experiment": "MIC, standard agar-dilution assay", "format": "cell-based"}, "[12]": {"system": "Haemophilus influenzae 76", "experiment": "MIC, standard agar-dilution assay", "format": "cell-based"}, "[13]": {"system": "Streptococcus pneumoniae Park 1", "format": "cell-based", "settings": "agar dilution"}, "[14]": {"system": "Staphylococcus aureus NRRL B313", "settings": "agar dilution"}, "[15]": {"system": "Staphylococcus epidermidis EPI1", "format": "cell-based", "settings": "agar dilution"}}, "data": [{"compound": "CCCCCCCNC1(C)CC(OC2C(Oc3c4cc5cc3Oc3ccc(cc3Cl)C(O)C(NC(=O)C(CC(C)C)N(C)CCCCCCC)C(=O)NC(CC(N)=O)C(=O)NC5C(=O)NC3C(=O)NC(C(=O)NC(C(=O)O)c5cc(O)cc(O)c5-c5cc3ccc5O)C(O)c3ccc(c(Cl)c3)O4)OC(CO)C(O)C2O)OC(C)C1O", "note": "(stereo not drawn) [Compound 12, N^van, N^leu --di(n-heptyl)vancomycin]", "values": [{"measurement": "MIC", "setting": "[1]", "result": 1, "unit": "µg/mL"}, {"measurement": "MIC", "setting": "[2]", "result": 1, "unit": "µg/mL"}, {"measurement": "MIC", "setting": "[3]", "result": 1, "unit": "µg/mL"}, {"measurement": "MIC", "setting": "[4]", "result": 1, "unit": "µg/mL"}, {"measurement": "MIC", "setting": "[5]", "result": "> 128", "unit": "µg/mL"}, {"measurement": "MIC", "setting": "Escherichia coli N10", "result": "> 128", "unit": "µg/mL"}, {"measurement": "MIC", "setting": "[6]", "result": "> 128", "unit": "µg/mL"}, {"measurement": "MIC", "setting": "[7]", "result": 1, "unit": "µg/mL"}, {"measurement": "MIC", "setting": "Escherichia coli EC14", "result": "> 128", "unit": "µg/mL"}, {"measurement": "MIC", "setting": "[8]", "result": "> 128", "unit": "µg/mL"}, {"measurement": "MIC", "setting": "[9]", "result": 0.5, "unit": "µg/mL"}, {"measurement": "MIC", "setting": "Escherichia coli TEM", "result": "> 128", "unit": "µg/mL"}, {"measurement": "MIC", "setting": "[10]", "result": "> 128", "unit": "µg/mL"}, {"measurement": "MIC", "setting": "[11]", "result": 1, "unit": "µg/mL"}, {"measurement": "MIC", "setting": "[12]", "result": 128, "unit": "µg/mL"}, {"measurement": "MIC", "setting": "[13]", "result": 0.5, "unit": "µg/mL"}, {"measurement": "MIC", "setting": "[14]", "result": 0.5, "unit": "µg/mL"}, {"measurement": "MIC", "setting": "[15]", "result": 2, "unit": "µg/mL"}]}, {"compound": "CCCNC1(C)CC(OC2C(Oc3c4cc5cc3Oc3ccc(cc3Cl)C(O)C3NC(=O)C(NC(=O)C5NC(=O)C(CC(N)=O)NC(=O)C(NC(=O)C(CC(C)C)NC)C(O)c5ccc(c(Cl)c5)O4)c4ccc(O)c(c4)-c4c(O)cc(O)cc4C(C(=O)O)NC3=O)OC(CO)C(O)C2O)OC(C)C1O", "note": "(stereo not drawn) [Compound 20, N^van --(n-propyl)vancomycin]", "values": [{"measurement": "MIC", "setting": "[1]", "result": 1, "unit": "µg/mL"}, {"measurement": "MIC", "setting": "[2]", "result": 1, "unit": "µg/mL"}, {"measurement": "MIC", "setting": "[3]", "result": 1, "unit": "µg/mL"}, {"measurement": "MIC", "setting": "[4]", "result": 1, "unit": "µg/mL"}, {"measurement": "MIC", "setting": "[5]", "result": "> 128", "unit": "µg/mL"}, {"measurement": "MIC", "setting": "Escherichia coli N10", "result": "> 128", "unit": "µg/mL"}, {"measurement": "MIC", "setting": "[6]", "result": "> 128", "unit": "µg/mL"}, {"measurement": "MIC", "setting": "[7]", "result": 1, "unit": "µg/mL"}, {"measurement": "MIC", "setting": "Escherichia coli EC14", "result": "> 128", "unit": "µg/mL"}, {"measurement": "MIC", "setting": "[8]", "result": 128, "unit": "µg/mL"}, {"measurement": "MIC", "setting": "[9]", "result": 0.5, "unit": "µg/mL"}, {"measurement": "MIC", "setting": "Escherichia coli TEM", "result": "> 128", "unit": "µg/mL"}, {"measurement": "MIC", "setting": "[10]", "result": "> 128", "unit": "µg/mL"}, {"measurement": "MIC", "setting": "[11]", "result": 1, "unit": "µg/mL"}, {"measurement": "MIC", "setting": "[12]", "result": 128, "unit": "µg/mL"}, {"measurement": "MIC", "setting": "[13]", "result": 0.5, "unit": "µg/mL"}, {"measurement": "MIC", "setting": "[14]", "result": 1, "unit": "µg/mL"}, {"measurement": "MIC", "setting": "[15]", "result": 4, "unit": "µg/mL"}]}, {"compound": "CCCCCCCCNC1(C)CC(OC2C(Oc3c4cc5cc3Oc3ccc(cc3Cl)C(O)C(NC(=O)C(CC(C)C)N(C)CCCCCCCC)C(=O)NC(CC(N)=O)C(=O)NC5C(=O)NC3C(=O)NC(C(=O)NC(C(=O)O)c5cc(O)cc(O)c5-c5cc3ccc5O)C(O)c3ccc(c(Cl)c3)O4)OC(CO)C(O)C2O)OC(C)C1O", "note": "(stereo not drawn) [Compound 9, N^van, N^leu --di(n-octyl)vancomycin]", "values": [{"measurement": "MIC", "setting": "[1]", "result": 1, "unit": "µg/mL"}, {"measurement": "MIC", "setting": "[2]", "result": 2, "unit": "µg/mL"}, {"measurement": "MIC", "setting": "[3]", "result": 2, "unit": "µg/mL"}, {"measurement": "MIC", "setting": "[4]", "result": 1, "unit": "µg/mL"}, {"measurement": "MIC", "setting": "[5]", "result": "> 128", "unit": "µg/mL"}, {"measurement": "MIC", "setting": "Escherichia coli N10", "result": "> 128", "unit": "µg/mL"}, {"measurement": "MIC", "setting": "[6]", "result": "> 128", "unit": "µg/mL"}, {"measurement": "MIC", "setting": "[7]", "result": 1, "unit": "µg/mL"}, {"measurement": "MIC", "setting": "Escherichia coli EC14", "result": "> 128", "unit": "µg/mL"}, {"measurement": "MIC", "setting": "[8]", "result": "> 128", "unit": "µg/mL"}, {"measurement": "MIC", "setting": "[9]", "result": 0.5, "unit": "µg/mL"}, {"measurement": "MIC", "setting": "Escherichia coli TEM", "result": "> 128", "unit": "µg/mL"}, {"measurement": "MIC", "setting": "[10]", "result": "> 128", "unit": "µg/mL"}, {"measurement": "MIC", "setting": "[11]", "result": 1, "unit": "µg/mL"}, {"measurement": "MIC", "setting": "[12]", "result": "> 128", "unit": "µg/mL"}, {"measurement": "MIC", "setting": "[13]", "result": 1, "unit": "µg/mL"}, {"measurement": "MIC", "setting": "[14]", "result": 1, "unit": "µg/mL"}, {"measurement": "MIC", "setting": "[15]", "result": 4, "unit": "µg/mL"}]}, {"compound": "CCNC1(C)CC(OC2C(Oc3c4cc5cc3Oc3ccc(cc3Cl)C(O)C(NC(=O)C(CC(C)C)N(C)CC)C(=O)NC(CC(N)=O)C(=O)NC5C(=O)NC3C(=O)NC(C(=O)NC(C(=O)O)c5cc(O)cc(O)c5-c5cc3ccc5O)C(O)c3ccc(c(Cl)c3)O4)OC(CO)C(O)C2O)OC(C)C1O", "note": "(stereo not drawn) [Compound 24, N^van, N^leu --diethylvancomycin]", "values": [{"measurement": "MIC", "setting": "[1]", "result": 2, "unit": "µg/mL"}, {"measurement": "MIC", "setting": "[2]", "result": 2, "unit": "µg/mL"}, {"measurement": "MIC", "setting": "[3]", "result": 4, "unit": "µg/mL"}, {"measurement": "MIC", "setting": "[4]", "result": 2, "unit": "µg/mL"}, {"measurement": "MIC", "setting": "[5]", "result": "> 128", "unit": "µg/mL"}, {"measurement": "MIC", "setting": "Escherichia coli N10", "result": "> 128", "unit": "µg/mL"}, {"measurement": "MIC", "setting": "[6]", "result": "> 128", "unit": "µg/mL"}, {"measurement": "MIC", "setting": "[7]", "result": 1, "unit": "µg/mL"}, {"measurement": "MIC", "setting": "Escherichia coli EC14", "result": "> 128", "unit": "µg/mL"}, {"measurement": "MIC", "setting": "[8]", "result": "< 128", "unit": "µg/mL"}, {"measurement": "MIC", "setting": "[9]", "result": 1, "unit": "µg/mL"}, {"measurement": "MIC", "setting": "Escherichia coli TEM", "result": "> 128", "unit": "µg/mL"}, {"measurement": "MIC", "setting": "[10]", "result": "> 128", "unit": "µg/mL"}, {"measurement": "MIC", "setting": "[11]", "result": 1, "unit": "µg/mL"}, {"measurement": "MIC", "setting": "[12]", "result": 128, "unit": "µg/mL"}, {"measurement": "MIC", "setting": "[13]", "result": 1, "unit": "µg/mL"}, {"measurement": "MIC", "setting": "[14]", "result": 1, "unit": "µg/mL"}, {"measurement": "MIC", "setting": "[15]", "result": 2, "unit": "µg/mL"}]}]}
